Results published in the NIST ThermoML archive (doi:10.1016/j.tca.2010.08.002).
Several values for one entry are separate records, joined by “and”; a condition that tells them apart may be missing. Equal entries are not always repeated. ± gives the expanded uncertainty stated by the source.

Assay: molar heat capacity at saturation pressure
Details: Crystal, Vacuum adiabatic calorimetry

CCCCn1cc[n+](C)c1.O=S(=O)([O-])C(F)(F)F [1-butyl-3-methylimidazolium trifluoromethanesulfonate]
Details	molar heat capacity
5.202 K	1.664 ± 0.032 J/K/mol
5.437 K	1.901 ± 0.034 J/K/mol
5.715 K	2.221 ± 0.038 J/K/mol
5.999 K	2.57 ± 0.041 J/K/mol
6.317 K	2.999 ± 0.046 J/K/mol
6.671 K	3.523 ± 0.05 J/K/mol
7.032 K	4.097 ± 0.056 J/K/mol
7.395 K	4.732 ± 0.061 J/K/mol
7.763 K	5.393 ± 0.066 J/K/mol
8.135 K	6.123 ± 0.072 J/K/mol
8.512 K	6.893 ± 0.078 J/K/mol
8.894 K	7.698 ± 0.084 J/K/mol
9.277 K	8.558 ± 0.09 J/K/mol
9.664 K	9.444 ± 0.096 J/K/mol
10.05 K	10.36 ± 0.1 J/K/mol
10.55 K	11.59 ± 0.11 J/K/mol
11.16 K	13.11 ± 0.12 J/K/mol
11.77 K	14.7 ± 0.13 J/K/mol
12.38 K	16.35 ± 0.14 J/K/mol
13 K	18.04 ± 0.15 J/K/mol
13.62 K	19.77 ± 0.16 J/K/mol
14.25 K	21.58 ± 0.17 J/K/mol
14.88 K	23.41 ± 0.18 J/K/mol
15.62 K	25.59 ± 0.19 J/K/mol
16.48 K	28.21 ± 0.2 J/K/mol
17.34 K	30.75 ± 0.21 J/K/mol
18.21 K	33.27 ± 0.22 J/K/mol
19.07 K	35.79 ± 0.23 J/K/mol
19.94 K	38.35 ± 0.23 J/K/mol
21.15 K	41.92 ± 0.24 J/K/mol
22.72 K	46.46 ± 0.25 J/K/mol
24.29 K	51.02 ± 0.25 J/K/mol
25.87 K	55.46 ± 0.26 J/K/mol
27.45 K	59.71 ± 0.25 J/K/mol
28.86 K	63.39 ± 0.25 J/K/mol
30.34 K	67.25 ± 0.18 J/K/mol
32.09 K	71.61 ± 0.19 J/K/mol
34 K	76.13 ± 0.2 J/K/mol
35.92 K	80.4 ± 0.21 J/K/mol
37.84 K	84.48 ± 0.21 J/K/mol
39.76 K	88.4 ± 0.22 J/K/mol
41.78 K	92.42 ± 0.23 J/K/mol
43.9 K	96.53 ± 0.24 J/K/mol
46.01 K	100.5 ± 0.2 J/K/mol
48.13 K	104.3 ± 0.3 J/K/mol
50.25 K	108 ± 0.3 J/K/mol
52.38 K	111.5 ± 0.3 J/K/mol
54.5 K	114.9 ± 0.3 J/K/mol
56.63 K	118.1 ± 0.3 J/K/mol
58.75 K	121.2 ± 0.3 J/K/mol
60.89 K	124.2 ± 0.3 J/K/mol
63.03 K	127.2 ± 0.3 J/K/mol
65.17 K	130.1 ± 0.3 J/K/mol
67.3 K	133 ± 0.3 J/K/mol
69.44 K	135.8 ± 0.3 J/K/mol
71.69 K	138.7 ± 0.3 J/K/mol
74.03 K	141.6 ± 0.3 J/K/mol
76.39 K	144.5 ± 0.3 J/K/mol
78.69 K	147.6 ± 0.3 J/K/mol and 147.7 ± 0.3 J/K/mol
78.74 K	147.4 ± 0.3 J/K/mol
80.59 K	149.7 ± 0.3 J/K/mol
80.61 K	149.7 ± 0.3 J/K/mol
81.1 K	150.1 ± 0.3 J/K/mol
82.36 K	151.6 ± 0.3 J/K/mol
82.4 K	151.6 ± 0.3 J/K/mol
83.47 K	152.9 ± 0.4 J/K/mol
84.13 K	153.6 ± 0.4 J/K/mol
84.19 K	153.7 ± 0.4 J/K/mol
85.92 K	155.7 ± 0.4 J/K/mol
86 K	155.7 ± 0.4 J/K/mol
87.73 K	157.6 ± 0.4 J/K/mol
87.81 K	157.6 ± 0.4 J/K/mol
89.54 K	159.5 ± 0.4 J/K/mol
89.64 K	159.6 ± 0.4 J/K/mol
91.35 K	161.5 ± 0.4 J/K/mol
91.48 K	161.6 ± 0.4 J/K/mol
93.18 K	163.4 ± 0.4 J/K/mol
93.33 K	163.6 ± 0.4 J/K/mol
95.02 K	165.5 ± 0.4 J/K/mol
95.19 K	165.6 ± 0.4 J/K/mol
96.87 K	167.3 ± 0.4 J/K/mol
97.05 K	167.5 ± 0.4 J/K/mol
98.72 K	169.2 ± 0.4 J/K/mol
98.92 K	169.4 ± 0.4 J/K/mol
100.59 K	171.1 ± 0.4 J/K/mol
100.8 K	171.4 ± 0.4 J/K/mol
102.64 K	173.1 ± 0.4 J/K/mol
102.7 K	173.3 ± 0.4 J/K/mol
104.6 K	175.1 ± 0.4 J/K/mol
104.89 K	175.5 ± 0.4 J/K/mol
106.5 K	177 ± 0.4 J/K/mol
107.15 K	177.7 ± 0.4 J/K/mol
108.41 K	178.9 ± 0.4 J/K/mol
109.42 K	179.9 ± 0.4 J/K/mol
110.33 K	180.8 ± 0.4 J/K/mol
111.71 K	182.1 ± 0.4 J/K/mol
112.25 K	182.6 ± 0.4 J/K/mol
114.01 K	184.4 ± 0.4 J/K/mol
114.17 K	184.5 ± 0.4 J/K/mol
116.1 K	186.5 ± 0.4 J/K/mol
116.31 K	186.8 ± 0.4 J/K/mol
118.04 K	189.9 ± 0.4 J/K/mol
118.61 K	190.7 ± 0.4 J/K/mol
119.97 K	192.6 ± 0.4 J/K/mol
120.92 K	192.7 ± 0.4 J/K/mol
121.91 K	193.4 ± 0.4 J/K/mol
123.24 K	193.9 ± 0.4 J/K/mol
123.85 K	194.3 ± 0.4 J/K/mol
125.56 K	195.3 ± 0.4 J/K/mol
125.8 K	195.5 ± 0.4 J/K/mol
127.76 K	196.9 ± 0.4 J/K/mol
127.9 K	197 ± 0.4 J/K/mol
129.72 K	198.4 ± 0.4 J/K/mol
130.24 K	198.8 ± 0.4 J/K/mol
131.68 K	200 ± 0.4 J/K/mol
132.58 K	200.7 ± 0.4 J/K/mol
133.65 K	201.6 ± 0.4 J/K/mol
134.93 K	202.7 ± 0.4 J/K/mol
135.63 K	203.2 ± 0.4 J/K/mol
137.28 K	204.7 ± 0.4 J/K/mol
137.6 K	204.9 ± 0.4 J/K/mol
139.58 K	206.5 ± 0.4 J/K/mol
139.64 K	206.6 ± 0.4 J/K/mol
141.56 K	208.3 ± 0.4 J/K/mol
142 K	208.7 ± 0.4 J/K/mol
143.55 K	210.1 ± 0.4 J/K/mol
144.36 K	210.9 ± 0.4 J/K/mol
145.53 K	211.9 ± 0.4 J/K/mol
146.73 K	213 ± 0.4 J/K/mol
147.51 K	213.7 ± 0.4 J/K/mol
149.09 K	215.2 ± 0.4 J/K/mol
149.5 K	215.5 ± 0.4 J/K/mol
151.45 K	217.4 ± 0.4 J/K/mol
151.48 K	217.4 ± 0.4 J/K/mol
153.46 K	219.3 ± 0.4 J/K/mol
153.82 K	219.6 ± 0.4 J/K/mol
155.44 K	221.2 ± 0.4 J/K/mol
156.18 K	221.9 ± 0.4 J/K/mol
157.42 K	223.1 ± 0.4 J/K/mol
158.55 K	224.2 ± 0.4 J/K/mol
159.41 K	225.1 ± 0.4 J/K/mol
160.91 K	226.5 ± 0.4 J/K/mol
161.39 K	226.9 ± 0.4 J/K/mol
163.28 K	228.8 ± 0.4 J/K/mol
163.37 K	228.9 ± 0.4 J/K/mol
165.35 K	230.9 ± 0.4 J/K/mol
165.64 K	231.1 ± 0.4 J/K/mol
167.32 K	232.8 ± 0.4 J/K/mol
168 K	233.4 ± 0.4 J/K/mol
169.3 K	234.8 ± 0.4 J/K/mol
